In paper PMC5015216, “Change in decay rates of dioxin-like compounds in Yusho patients” (Environmental Health, 2016):
Read-outs that look alike come from different tables or passages of the source.

Key:
[1] = Longitudinal blood concentration / body burden in Yusho cohort 2002-2010, second-order regression of log body burden; format: in vivo, human (Yusho patients)
Source text: The subjects were 354 patients whose blood concentration of 2,3,4,7,8-PeCDF had been measured three or more times at annual Yusho medical checkups between 2002 and 2010, i.e., 34–42 years since exposure, and for whom the period from the first to last measurement was over 4 years. We examined two chemicals: 2,3,4,7,8-PeCDF, which is the causative chemical, and octachlorodibenzodioxin (OCDD), which is a chemical found in Yusho patients but less commonly in the general public. This research was approved by Nara Medical University Ethics Committee (No. 281–2).
For the logarithm of body burden, which was calculated from concentration and weight, we examined the second derivative by second-order regression. The body burden Cit of patient i at time t is given by:1 logCit=βi+α1t+α2t^2+γ1w1it+γ2w2it
where t is the time, with t = 0 denoting 2006 (middle of the observation period), α2 is the coefficient for a second-order derivative, α1 is the first-order derivative at time t = 0, βi is the reference value for each individual, W1it is the weight and W2it is the lipid in blood (%) of patient i at time t, and γj is the coefficient for weight and lipid in blood. Aylward et al. used an estimate of body fat as volume of distribution, but we used weight and lipid in blood.
We combined all observed concentrations into equation (2):2 y=X⋅β+T⋅α+W⋅γ+ε
where y is the vector of the logarithm of dioxins and dioxin-like compounds in blood lipid concentration, Xβ is the base concentration for each patient, Tα is the change in time, Wγ is an adjustment term according to weight and lipid in blood, and ε is an observation error. X is a matrix with the total number of measurements rows and number of patient columns. T is a matrix with the total number of measurement rows and two columns, second-order and first-order for time. W is the matrix with the total number of measurement rows and two columns, weight and lipid. Equation (3) is a matrix form:3 y=XTWβαγ+ε
By solving multiple linear regressions with the lm function in R, we could estimate first- and second-order derivatives. It was assumed that patients in the same group had same trend with regard to time. […] For the case of one patient and no second-order coefficient measurements, equation (3) equals leads to an equation for estimation of decay rate:4 ka=lnCt2−lnCt1/Δt
We estimated the first- and second-order coefficients, equivalent to the decay rate and change in decay rate, for OCDD and 2,3,4,7,8-PeCDF for each patient group shown in Table 1.

[2] = cited from earlier work
[3] = patient group 2,3,4,7,8-PeCDF concentration range 0–10 pg/g lipid
[4] = patient group concentration range 0–10 pg/g lipid
[5] = patient group concentration range 10–20 pg/g lipid
[6] = patient group concentration range 20–50 pg/g lipid
[7] = patient group concentration range 50–100 pg/g lipid
[8] = patient group concentration range >100 pg/g lipid

SMILES | Second-order coefficient (equivalent to minus change in apparent elimination rate in 2006) [1, 3] | First-order coefficient (equivalent to minus apparent elimination rate) [1, 4] | First-order coefficient (equivalent to minus apparent elimination rate) [1, 5] | Second-order coefficient (equivalent to minus change in apparent elimination rate in 2006) [1, 5] | First-order coefficient (equivalent to minus apparent elimination rate) [1, 6] | Second-order coefficient (equivalent to minus change in apparent elimination rate in 2006) [1, 6] | First-order coefficient (equivalent to minus apparent elimination rate) [1, 7] | Second-order coefficient (equivalent to minus change in apparent elimination rate in 2006) [1, 7] | First-order coefficient (equivalent to minus apparent elimination rate) [1, 8] | Second-order coefficient (equivalent to minus change in apparent elimination rate in 2006) [1, 8] | apparent half-life ([2]; Yusho patients with blood 2,3,4,7,8-PeCDF ≥50 pg/g lipid, first of two groups) | change in blood levels over time ([2]; Yusho patients with blood 2,3,4,7,8-PeCDF ≥50 pg/g lipid, second of two groups) | apparent half-life ([2]; Yusho patients, group that became larger since medical checkups began) | apparent half-life ([2]; Yusho patients, group that became smaller since medical checkups began)
Clc1cc2oc3c(Cl)c(Cl)c(Cl)cc3c2cc1Cl [2,3,4,7,8-PeCDF, 2,3,4,7,8-pentachlorodibenzofuran] | −0.000596 | −0.004032 | −0.000462 | 0.000464 | 0.001669 | 0.000643 | −0.005452 | 0.002124 | −0.008294 | 0.001436 | ≈ 10 years | no reduction | near infinite | around 10 years
Clc1c(Cl)c(Cl)c2c(c1Cl)Oc1c(Cl)c(Cl)c(Cl)c(Cl)c1O2 [OCDD, octachlorodibenzodioxin] | −0.006366 | −0.01433 | −0.01954 | −0.003289 | −0.02054 | −0.001897 | −0.01224 | −0.002991 | −0.009034 | −0.004341 |  |  |  | 
